Assays:
Format in all cases: cell-based
SLC47A1 (MATE1) [1] = assay: Effect of Rifampicin on SLC47A1 mRNA expression in human skin organoculture (real time PCR); details: Rifampicin 20 μM, 72 hours, p≦0.05
Description: (§1) Fresh human skin samples from 3 different donors were used and maintained in organoculture. Four skin biopsies of 6 mm diameter were used per well of 6-well plate, filled with long term skin culture medium (Biopredic, France) (FIG. 1). Skin samples were treated with 20 μM Rifampicin during 3 days. In a separate experiment, skin samples were exposed during one hour every day during 3 days to UV lights via a solar simulator (UVA 110 W/m^2; UVB 20 W/m^2). Untreated skin samples were used as control. The culture plates were kept in a cell culture incubator set at 37° C., 5% CO2 and saturated hygrometry. At the end of treatment period gene expression of SLC transporters was measured as described above.
(§2) After homogenization of skin samples or hepatocytes in lysis buffer (Promega), total RNA was isolated using SV Total RNA Isolation System (Promega), in accordance with the instructions provided by the constructor. RNA concentrations were quantified spectrophotometrically. Quantification of mRNA expression of human SLC transporters was performed using TaqMan PCR techniques (Applied Biosystems). Experiments were carried out on a 7500 real time PCR System (Applied Biosystems) using Assay-on-Demand gene expression products. For this, 500 ng of total RNA were reverse-transcribed using the High Capacity RNA to cDNA Master Mix kit (Applied Biosystems).

SLC47A2 (MATE2) = assay: Effect of Rifampicin on SLC47A2 mRNA expression in human skin organoculture (real time PCR); details: Rifampicin 20 μM, 72 hours
Description: as §1, §2

SLC47A1 (MATE1) [2] = assay: Effect of Rifampicin on SLC47A1 mRNA expression in human hepatocytes in primary culture (real time PCR); details: Rifampicin 20 μM, 72 hours
Description: as §2

In the case of CO[C@H]1/C=C/O[C@@]2(C)Oc3c(C)c(O)c4c(O)c(c(/C=N/N5CCN(C)CC5)c(O)c4c3C2=O)NC(=O)/C(C)=C\C=C\[C@H](C)[C@H](O)[C@@H](C)[C@@H](O)[C@@H](C)[C@H](OC(C)=O)[C@@H]1C [Rifampicin], the “decrease in MATE1 expression” value (SLC47A1 (MATE1) [1]) is reported as 44%, the “decrease in MATE2 expression” value (SLC47A2 (MATE2)) is reported as 30% and the “decrease in expression of SLC47A1 (MATE1)” value (SLC47A1 (MATE1) [2]) is reported as 48%.
